The test system of data set [1] is TNF-alpha. Nature of the data set: TNF-alpha expression in UV-irradiated HaCaT cells (real time PCR). The class given is cell-based, human. To be noted: 10 uM, 24 h after UV (254 nm, 15 J/m^2), normalized to GAPDH. As to the method: (§1) HaCaT cells—a human immortalized keratinocyte cell line—were exposed to 15 J/m^2 UVB (254 nm) irradiation. Twenty four hours after irradiation, the cells were harvested and RNA isolated to assess the expression of LXR-alpha, LXR-beta, ABCA1, TNF-alpha, IL-6, and IL-8 genes. HaCaT cells were cultured in DMEM supplemented with 10% (v/v) fetal bovine serum, penicillin (100 U/mL), streptomycin ([…]) and glutamine (2 mM). […] The expressions of ABCA1, TNF-alpha, IL-6, IL-8, LXR-alpha, and LXR-beta were normalized according to glyceraldehyde-3-phosphate dehydrogenase (GAPDH) expression. The results of three independent assays, carried out in duplicate for each condition, are reported.

Data set [2] has as its system ABCG1. Nature of the data set: ABCG1 expression in HepG2 cells (real time PCR). To be noted: 10 uM, 6 h. Format: cell-based, human. Background: Real-time PCR tracks product formation cycle by cycle.
Protocol: The cells were incubated for 6 h in the presence of either Compound I (10 uM), or Compound II (10 uM), or the commercial LXR agonist GW3965 (1 uM), or Vehicle [DMSO, 0.1% (v/v)]). To obtain RNA, at the end of the incubation the cells were collected by centrifugation at 1,000 rpm for 2 min, washed with phosphate buffered saline, and lysed in 300 ul TRIZOL (Invitrogen). RNA samples were suspended in ul of RNAse free water, and their concentration determined (NanoDrop spectrophotometer). The ratio of the absorbance at 260 and 280 nm was used to assess RNA purity of an RNA preparation, with a value of 1.8-2.0 indicating pure RNA. To obtain cDNA, 1 ug of total RNA was denatured by incubating for 5 min at 70° C., before the addition of a mixture containing 0.5 ug oligo-dT primers and 25 ng/ml of random primers (Invitrogen), 1.0 mM dNTPs (Invitrogen), and 200 U M-MLV reverse transcriptase (Promega); after this the mixture was retrotranscribed at 37° C. for 60 min, followed by an incubation at 95° C. for 5 min to inactivate the enzyme. For the real time PCR amplification (Stratagene Thermal Cycler), cDNA samples were diluted 1/5 to 1/10 depending on the target amplification product. Calibration curves were obtained by use of eight successive 1:2 sample dilutions. Amplifications were carried out in a 25 ul final volume (5 ul cDNA sample plus 20 ul of reaction mixture) in the presence of either 3, 4 or 5 mM MgCl2 (depending on the amplified sequence), 0.25 mM dNTPs (Invitrogen), 1.25 U Taq polymerase (Invitrogen), 1 μM of the specific primers according to the target amplification sequence, and 0.025 μl SYBR Green (Roche). Melting curves were used to assess the specificity of the amplification products. […]
For data set [3], the system named is IL-8. Nature of the data set: IL-8 expression in UV-irradiated HaCaT cells (real time PCR). The class given is cell-based, human. Particulars: 10 uM, 24 h after UV, normalized to GAPDH. Here is the method: as §1
The test system of data set [4] is ABCA1. Put plainly: ABCA1 expression in HaCaT cells (real time PCR). To be noted: HaCaT; 10 uM; 24 h after UV irradiation. The class given is cell-based, human. Here is the method:
[…] Twenty four hours after irradiation, the cells were harvested and RNA isolated to assess the expression of LXR-alpha, LXR-beta, ABCA1, TNF-alpha, IL-6, and IL-8 genes. HaCaT cells were cultured in DMEM supplemented with 10% (v/v) fetal bovine serum, penicillin (100 U/mL), streptomycin ([…]) and glutamine (2 mM). […] The expressions of ABCA1, TNF-alpha, IL-6, IL-8, LXR-alpha, and LXR-beta were normalized according to glyceraldehyde-3-phosphate dehydrogenase (GAPDH) expression. The results of three independent assays, carried out in duplicate for each condition, are reported.

The subject of data set [5] is ABCG1. Put plainly: ABCG1 expression in HL-60 cells (real time PCR). To be noted: 10 uM, 6 h. Format: cell-based, human. As to the method: To investigate the effects of Compounds I and II on the expression of three genes involved in lipid metabolism [fatty acid synthase (FAS); and two ATP-dependent cholesterol and phospholipid transporters, such as ABCA1 and ABCG1], human promyelocytic leukemia cells (HL-60) that endogenously express LXR-alpha and LXR-beta were incubated in the presence of either Comp I or Comp II (10 uM), or GW3965 (1 uM) for 6 h. mRNA levels for FAS, ABCA1 and ABCG1 were determined by real time PCR and results were normalized to GAPDH expression. HL-60 (10^6 cells/well) were cultured in RPMI medium supplemented with 5% (v/v) fetal bovine serum, penicillin (100 IU/mL), streptomycin (100 ug/mL) y cyprofloxacin (0.4 ug/mL). […] To obtain RNA, at the end of the incubation the cells were collected by centrifugation at 1,000 rpm for 2 min, washed with phosphate buffered saline, and lysed in 300 ul TRIZOL (Invitrogen). RNA samples were suspended in […] of RNAse free water, and their concentration determined (NanoDrop spectrophotometer). […] To obtain cDNA, 1 ug of total RNA was denatured by incubating for 5 min at 70° C., before the addition of a mixture containing 0.5 ug oligo-dT primers and 25 ng/ml of random primers (Invitrogen), 1.0 mM dNTPs (Invitrogen), and 200 U M-MLV reverse transcriptase (Promega); after this the mixture was retrotranscribed at 37° C. for 60 min, followed by an incubation at 95° C. for 5 min to inactivate the enzyme. For the real time PCR amplification (Stratagene Thermal Cycler), cDNA samples were diluted 1/5 to 1/10 depending on the target amplification product. Calibration curves were obtained by use of eight successive 1:2 sample dilutions. Amplifications were carried out in a 25 ul final volume (5 ul cDNA sample plus 20 ul of reaction mixture) in the presence of either 3, 4 or 5 mM MgCl2 (depending on the amplified sequence), 0.25 mM dNTPs (Invitrogen), 1.25 U Taq polymerase (Invitrogen), 1 μM of the specific primers according to the target amplification sequence, and 0.025 μl SYBR Green (Roche). […]

For data set [6], the system named is LXR-alpha. Nature of the data set: LXR-alpha expression in UV-irradiated HaCaT cells (real time PCR). To be noted: 10 uM, 24 h after UV, vs. DMSO (UV, 24 h) and GW3965 (UV, 24 h). The class given is cell-based, human. As to the method: as §1
For data set [7], the system named is LXR-beta. Put plainly: LXR-beta expression in UV-irradiated HaCaT cells (real time PCR). To be noted: 10 uM, 24 h after UV, vs. DMSO (UV, 24 h) and GW3965 (UV, 24 h). The class given is cell-based, human. Here is the method: as §1
In data set [8] the test system is ABCA1. Nature of the data set: ABCA1 expression in HepG2 cells (real time PCR). Format: cell-based, human. To be noted: 1 uM, 3 uM and 10 uM, 6 h.
Data set [9] concerns LXR-alpha. Nature of the data set: LXR-alpha expression in HepG2 cells (real time PCR). The class given is cell-based, human. Particulars: 10 uM, 6 h.
Protocol: The cells were incubated for 6 h in the presence of either Compound I (10 uM), or Compound II (10 uM), or the commercial LXR agonist GW3965 (1 uM), or Vehicle [DMSO, 0.1% (v/v)]). To obtain RNA, at the end of the incubation the cells were collected by centrifugation at 1,000 rpm for 2 min, washed with phosphate buffered saline, and lysed in 300 ul TRIZOL (Invitrogen). RNA samples were suspended in ul of RNAse free water, and their concentration determined (NanoDrop spectrophotometer). The ratio of the absorbance at 260 and 280 nm was used to assess RNA purity of an RNA preparation, with a value of 1.8-2.0 indicating pure RNA. To obtain cDNA, 1 ug of total RNA was denatured by incubating for 5 min at 70° C., before the addition of a mixture containing 0.5 ug oligo-dT primers and 25 ng/ml of random primers (Invitrogen), 1.0 mM dNTPs (Invitrogen), and 200 U M-MLV reverse transcriptase (Promega); after this the mixture was retrotranscribed at 37° C. for 60 min, followed by an incubation at 95° C. for 5 min to inactivate the enzyme. For the real time PCR amplification (Stratagene Thermal Cycler), cDNA samples were diluted 1/5 to 1/10 depending on the target amplification product. Calibration curves were obtained by use of eight successive 1:2 sample dilutions. […]
Data set [10] has as its system granuloma formation. Nature of the data set: Granuloma formation in a mouse model of subchronic inflammation. To be noted: mice; 10 mg/kg body weight; previously showed, data not shown. Format: in vivo.
Data set [11] is described as follows: Liver weight and gross morphology (hepatic steatosis) in C57BI mice after 5 days i.p. treatment. Format: in vivo. Particulars: male C57BI mice; Compound I 10 mg/kg i.p. daily for 5 days. Here is the method:
Administration of synthetic LXR agonists such as T0901317 induces a marked increment of liver lipogenesis that leads to hepatic steatosis and plasma hypertriglyceridemia.
Male C57BI mice received daily for 5 days intraperitoneal injections containing either 10 mg Compound I/kg, or 5 mg T0901317/kg, or vehicle [90% (v/v) DMSO in apyrogenic sterile water]. On the sixth day of the assay, the animals were fasted for 4 h before decapitation. Blood plasma was obtained for the determination of total cholesterol, HDL-cholesterol and triglyceride contents. The livers were resected, and their weights and colors used as gross markers of increased liver triglyceride contents.

`CC[C@@H](C(C)C)[C@H](O)[C@@H](O)[C@@H](C)[C@H]1CC[C@H]2[C@@H]3CCC4=CC(=O)C=C[C@]4(C)[C@H]3CC[C@]12C` [Compound II, (22S,23S)-22,23-dihydroxystigmasta-1,4-dien-3-one]: the “TNF-alpha expression versus DMSO-treated cells” value in [1] is recorded as “significantly lower”. Also, in data set [2], the “induction of ABCG1 expression” value is 3 times. Also, in [3], the “IL-8 expression versus DMSO-treated cells” value is reported as “significantly lower”. Also, the “ABCA1 expression versus DMSO-treated cells” value in data set [4] is “marginally induced”. In data set [5], the “effect on ABCG1 expression” value is given as “none of the test compounds significantly affected”. In addition, in data set [6], the LXR-alpha expression result is given as “stimulated LXR-alpha expression even further”. In data set [7], the LXR-beta expression entry was “more modest than that observed for Compound I”. Besides, the “induction of ABCA1 expression” value in data set [8] is “did not induce”.
For `CC[C@@H](C(C)C)[C@H](O)[C@@H](O)[C@@H](C)[C@H]1CC[C@H]2[C@@H]3CCC4=CC(=O)CC[C@]4(C)[C@H]3CC[C@]12C` [Compound I, (22S,23S)-22,23-dihydroxystigmast-4-en-3-one], the “TNF-alpha expression versus DMSO-treated cells” value in data set [1] was “significantly lower”. For the same compound, in data set [2], the “induction of ABCG1 expression” value was found to be 8 times. Besides, in [9], the “induction of LXR-alpha expression compared with DMSO treated HepG2” value worked out at 1.5 times. For the same compound, the granuloma formation result in data set [10] is on record as “reduces granuloma formation”. Moreover, the “IL-8 expression versus DMSO-treated cells” value in [3] is on record as “significantly lower”. The “ABCA1 expression versus DMSO-treated cells” value in data set [4] is reported as “marginally induced”. Besides, in [5], the “effect on ABCG1 expression” value was “none of the test compounds significantly affected”. In data set [6], the LXR-alpha expression result is listed as “stimulated LXR-alpha expression even further”. The LXR-beta expression result in [7] is given as “stimulated LXR-beta expression even further”. In addition, the “induction of ABCA1 expression” value in data set [8] is “did not induce”. Besides, in [11], the “liver (hepatic) steatosis” value is listed as “no signs”.

(Values after patent US20190365784A1, “USE OF BRASSINOSTEROID ANALOGS FOR THE TREATMENT OF DERMAL DISORDERS BY SELECTIVELY MODULATING LIVER X RECEPTORS (LXR) AND DERMAL DISEASE TREATMENT BY BRASSINOSTEROID ANALOGS ACTING AS SELECTIVE LIVER X RECEPTOR (LXR) MODULATORS” (CONSEJO NACIONAL DE INVESTIGACIONES CIENTÍFICAS Y TÉCNICAS …, priority 2015, published 2019).)
